Data reported in the NIST ThermoML archive (doi:10.1016/j.jct.2017.08.004).
Numbers after ± are expanded uncertainties.

Details: 1 K; 101.33 kPa; Crystal; relaxation calorimetry

Row | Compound | molar entropy [J/K/mol]
1 | OC[C@@H](O)C(O)[C@H](O)CO [D-arabitol] | 0.0005801 ± 6.3e-05
2 | O[C@H]1[C@H](O)[C@@H](O)[C@H](O)[C@@H](O)[C@H]1O [cis-1,2,3,5-trans-4,6-cyclohexanehexol] | 0.001133 ± 0.00012

More lines, now with the values ahead:

Row | molar entropy [J/K/mol] | Compound
3 | 0.000631 ± 7.5e-05 | OC[C@@H](O)[C@@H](O)[C@H](O)[C@H](O)CO [D-mannitol]
4 | 0.0005209 ± 5.9e-05 | OC[C@H](O)C(O)[C@@H](O)CO [L-(-)-arabitol]
5 | 0.0005942 ± 6.7e-05 | OC[C@@H](O)[C@@H](O)CO [meso-1,2,3,4-butanetetrol]

Same assay, conditions: 2 K; 101.33 kPa; Crystal; relaxation calorimetry

Row | Compound | molar entropy [J/K/mol]
6 | OC[C@@H](O)C(O)[C@H](O)CO [D-arabitol] | 0.002268 ± 0.00022
7 | O[C@H]1[C@H](O)[C@@H](O)[C@H](O)[C@@H](O)[C@H]1O [cis-1,2,3,5-trans-4,6-cyclohexanehexol] | 0.00457 ± 0.00044

Continued, values first:

Row | molar entropy [J/K/mol] | Compound
8 | 0.002978 ± 0.00029 | OC[C@@H](O)[C@@H](O)[C@H](O)[C@H](O)CO [D-mannitol]
9 | 0.002213 ± 0.00021 | OC[C@H](O)C(O)[C@@H](O)CO [L-(-)-arabitol]
10 | 0.002515 ± 0.00024 | OC[C@@H](O)[C@@H](O)CO [meso-1,2,3,4-butanetetrol]

Same assay, conditions: 3 K; 101.33 kPa; Crystal; relaxation calorimetry

Row | Compound | molar entropy [J/K/mol]
11 | OC[C@@H](O)C(O)[C@H](O)CO [D-arabitol] | 0.006257 ± 0.00059
12 | O[C@H]1[C@H](O)[C@@H](O)[C@H](O)[C@@H](O)[C@H]1O [cis-1,2,3,5-trans-4,6-cyclohexanehexol] | 0.01283 ± 0.0012

Further lines, results first:

Row | molar entropy [J/K/mol] | Compound
13 | 0.008828 ± 0.00083 | OC[C@@H](O)[C@@H](O)[C@H](O)[C@H](O)CO [D-mannitol]
14 | 0.006332 ± 0.00059 | OC[C@H](O)C(O)[C@@H](O)CO [L-(-)-arabitol]
15 | 0.007205 ± 0.00068 | OC[C@@H](O)[C@@H](O)CO [meso-1,2,3,4-butanetetrol]

Same assay, conditions: 4 K; 101.33 kPa; Crystal; relaxation calorimetry

Row | Compound | molar entropy [J/K/mol]
16 | OC[C@@H](O)C(O)[C@H](O)CO [D-arabitol] | 0.01391 ± 0.0013
17 | O[C@H]1[C@H](O)[C@@H](O)[C@H](O)[C@@H](O)[C@H]1O [cis-1,2,3,5-trans-4,6-cyclohexanehexol] | 0.0288 ± 0.0027

Other lines, results leading:

Row | molar entropy [J/K/mol] | Compound
18 | 0.02011 ± 0.0019 | OC[C@@H](O)[C@@H](O)[C@H](O)[C@H](O)CO [D-mannitol]
19 | 0.0143 ± 0.0013 | OC[C@H](O)C(O)[C@@H](O)CO [L-(-)-arabitol]
20 | 0.01633 ± 0.0015 | OC[C@@H](O)[C@@H](O)CO [meso-1,2,3,4-butanetetrol]

Same assay, conditions: 5 K; 101.33 kPa; Crystal; relaxation calorimetry

Row | Compound | molar entropy [J/K/mol]
21 | OC[C@@H](O)C(O)[C@H](O)CO [D-arabitol] | 0.02686 ± 0.0025
22 | O[C@H]1[C@H](O)[C@@H](O)[C@H](O)[C@@H](O)[C@H]1O [cis-1,2,3,5-trans-4,6-cyclohexanehexol] | 0.05587 ± 0.0052

Second part, the molecule after the results:

Row | molar entropy [J/K/mol] | Compound
23 | 0.03893 ± 0.0036 | OC[C@@H](O)[C@@H](O)[C@H](O)[C@H](O)CO [D-mannitol]
24 | 0.0278 ± 0.0026 | OC[C@H](O)C(O)[C@@H](O)CO [L-(-)-arabitol]
25 | 0.03184 ± 0.003 | OC[C@@H](O)[C@@H](O)CO [meso-1,2,3,4-butanetetrol]

Same assay, conditions: 6 K; 101.33 kPa; Crystal; relaxation calorimetry

Row | Compound | molar entropy [J/K/mol]
26 | OC[C@@H](O)C(O)[C@H](O)CO [D-arabitol] | 0.04705 ± 0.0044
27 | O[C@H]1[C@H](O)[C@@H](O)[C@H](O)[C@@H](O)[C@H]1O [cis-1,2,3,5-trans-4,6-cyclohexanehexol] | 0.09786 ± 0.009

Results, then the molecule that gave them:

Row | molar entropy [J/K/mol] | Compound
28 | 0.06761 ± 0.0063 | OC[C@@H](O)[C@@H](O)[C@H](O)[C@H](O)CO [D-mannitol]
29 | 0.04885 ± 0.0045 | OC[C@H](O)C(O)[C@@H](O)CO [L-(-)-arabitol]
30 | 0.05604 ± 0.0052 | OC[C@@H](O)[C@@H](O)CO [meso-1,2,3,4-butanetetrol]

Same assay, conditions: 7 K; 101.33 kPa; Crystal; relaxation calorimetry

Row | Compound | molar entropy [J/K/mol]
31 | OC[C@@H](O)C(O)[C@H](O)CO [D-arabitol] | 0.07698 ± 0.0071
32 | O[C@H]1[C@H](O)[C@@H](O)[C@H](O)[C@@H](O)[C@H]1O [cis-1,2,3,5-trans-4,6-cyclohexanehexol] | 0.1588 ± 0.015

Continued, values first:

Row | molar entropy [J/K/mol] | Compound
33 | 0.1087 ± 0.01 | OC[C@@H](O)[C@@H](O)[C@H](O)[C@H](O)CO [D-mannitol]
34 | 0.07993 ± 0.0074 | OC[C@H](O)C(O)[C@@H](O)CO [L-(-)-arabitol]
35 | 0.09153 ± 0.0084 | OC[C@@H](O)[C@@H](O)CO [meso-1,2,3,4-butanetetrol]

Same assay, conditions: 8 K; 101.33 kPa; Crystal; relaxation calorimetry

Row | Compound | molar entropy [J/K/mol]
36 | OC[C@@H](O)C(O)[C@H](O)CO [D-arabitol] | 0.1198 ± 0.011
37 | O[C@H]1[C@H](O)[C@@H](O)[C@H](O)[C@@H](O)[C@H]1O [cis-1,2,3,5-trans-4,6-cyclohexanehexol] | 0.2429 ± 0.022

The next lines start with the values.

Row | molar entropy [J/K/mol] | Compound
38 | 0.165 ± 0.015 | OC[C@@H](O)[C@@H](O)[C@H](O)[C@H](O)CO [D-mannitol]
39 | 0.1243 ± 0.011 | OC[C@H](O)C(O)[C@@H](O)CO [L-(-)-arabitol]
40 | 0.1411 ± 0.013 | OC[C@@H](O)[C@@H](O)CO [meso-1,2,3,4-butanetetrol]

Same assay, conditions: 9 K; 101.33 kPa; Crystal; relaxation calorimetry

Row | Compound | molar entropy [J/K/mol]
41 | OC[C@@H](O)C(O)[C@H](O)CO [D-arabitol] | 0.179 ± 0.017
42 | O[C@H]1[C@H](O)[C@@H](O)[C@H](O)[C@@H](O)[C@H]1O [cis-1,2,3,5-trans-4,6-cyclohexanehexol] | 0.3528 ± 0.033

Continued, values first:

Row | molar entropy [J/K/mol] | Compound
43 | 0.2395 ± 0.022 | OC[C@@H](O)[C@@H](O)[C@H](O)[C@H](O)CO [D-mannitol]
44 | 0.1854 ± 0.017 | OC[C@H](O)C(O)[C@@H](O)CO [L-(-)-arabitol]
45 | 0.2079 ± 0.019 | OC[C@@H](O)[C@@H](O)CO [meso-1,2,3,4-butanetetrol]

Same assay, conditions: 10 K; 101.33 kPa; Crystal; relaxation calorimetry

Row | Compound | molar entropy [J/K/mol]
46 | OC[C@@H](O)C(O)[C@H](O)CO [D-arabitol] | 0.2576 ± 0.024
47 | O[C@H]1[C@H](O)[C@@H](O)[C@H](O)[C@@H](O)[C@H]1O [cis-1,2,3,5-trans-4,6-cyclohexanehexol] | 0.4907 ± 0.045

Other lines, results leading:

Row | molar entropy [J/K/mol] | Compound
48 | 0.3351 ± 0.031 | OC[C@@H](O)[C@@H](O)[C@H](O)[C@H](O)CO [D-mannitol]
49 | 0.2663 ± 0.025 | OC[C@H](O)C(O)[C@@H](O)CO [L-(-)-arabitol]
50 | 0.2944 ± 0.027 | OC[C@@H](O)[C@@H](O)CO [meso-1,2,3,4-butanetetrol]
